# Laboratory results reported in patent publication US6355799B1, “Substituted benzene compounds, process for their preparation, and herbicidal and defoliant compositions containing them” (ISK Americas Incorporated, priority 1997, dated 2002).
# Tests used:
# Type in all cases: in vivo
# [1] = tested on: redroot pigweed (Amaranthus retroflexus, AMARE); assay: Pre-emerge test, greenhouse herbicide activity screening; conditions: rated 14 days after application, 0 = no damage, 100 = complete death
# Summary of the method: (§1)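 Rating: 0–100 visual injury, 14 DAA. Application: acetone, 187 l/ha, 15–1000 g ai/ha, flat-fan track sprayer with nozzle 40–45 cm above soil or canopy. Post-emerge runs used 0.25% v/v surfactant on 2–3 leaf plants.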
# [2] = tested on: barnyardgrass (Echinochloa crus-galli, ECHCG); assay: as above; conditions: rated 14 days after application, 0 = no damage, 100 = complete death
# Summary of the method: (§2)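 Compounds in acetone were track-sprayed at 187 l/ha, 15–1000 g ai/ha, onto sandy loam pots. Pre-emerge seeds were sown one day before spraying, with surface watering afterwards. Post-emerge plants were at the 2–3 leaf stage and sprayed with 0.25% v/v non-ionic surfactant. Injury was rated 0–100 at 14 days.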
# [3] = tested on: common ragweed (Ambrosia artemisizfolia L., AMBEL); assay: as above; conditions: rated 14 days after application, 0 = no damage, 100 = complete death
# Summary of the method: as §2
# [4] = tested on: green foxtail (Setaria viridis, SETVI); assay: as above; conditions: rated 14 days after application, 0 = no damage, 100 = complete death
# Summary of the method: as §2
# [5] = tested on: ivyleaf morningglory (Ipomoea hederacea, IPOHE); assay: as above; conditions: rated 14 days after application, 0 = no damage, 100 = complete death
# Summary of the method: as §2
# [6] = tested on: johnsongrass (Sorghum halepense, SORHA); assay: as above; conditions: rated 14 days after application, 0 = no damage, 100 = complete death
# Summary of the method: as §2
# [7] = tested on: lambsquarters (Chenopodium album, CHEAL); assay: as above; conditions: rated 14 days after application, 0 = no damage, 100 = complete death
# Summary of the method: as §2
# [8] = tested on: large crabgrass (Digitaria sanguinalis, DIGSA); assay: as above; conditions: rated 14 days after application, 0 = no damage, 100 = complete death
# Summary of the method: as §2
# [9] = tested on: sicklepod (Cassia obtusifolia, CASOB); assay: as above; conditions: rated 14 days after application, 0 = no damage, 100 = complete death
# Summary of the method: as §2
# [10] = tested on: velvetleaf (Abutilon theophrasti, ABUTH); assay: as above; conditions: rated 14 days after application, 0 = no damage, 100 = complete death
# Summary of the method: as §2
# [11] = tested on: field corn (Zea mays L., var. Dekalb 535, CORN); assay: Pre-emerge test, crop safety; conditions: rated 14 days after application, 0 = no damage, 100 = complete death
# Summary of the method: as §1
# [12] = tested on: upland rice (Oryza sp., var. Tebonnet, RICE); assay: Pre-emerge test, crop safety; conditions: rated 14 days after application, 0 = no damage, 100 = complete death
# Summary of the method: as §1
# [13] = tested on: barnyardgrass (Echinochloa crus-galli, ECHCG); assay: Post-emerge test, greenhouse herbicide activity screening; conditions: post-emerge, 14 days after application, rating scale 0-100
# Summary of the method: (§3)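 Fourteen days after spraying, crop and weed injury was graded visually from 0, no effect, to 100, every plant dead. Test substances were dissolved in acetone and applied at 15–1000 g ai/ha with a flat-fan nozzle. Application was either pre-emergence, one day after sowing, or post-emergence at the 2–3 leaf stage.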
# [14] = tested on: common ragweed (Ambrosia artemisizfolia L., AMBEL); assay: as above; conditions: post-emerge, 14 days after application, rating scale 0-100
# Summary of the method: as §3
# [15] = tested on: green foxtail (Setaria viridis, SETVI); assay: as above; conditions: post-emerge, 14 days after application, rating scale 0-100
# Summary of the method: as §3
# [16] = tested on: ivyleaf morningglory (Ipomoea hederacea, IPOHE); assay: as above; conditions: post-emerge, 14 days after application, rating scale 0-100
# Summary of the method: as §3
# [17] = tested on: johnsongrass (Sorghum halepense, SORHA); assay: as above; conditions: post-emerge, 14 days after application, rating scale 0-100
# Summary of the method: as §3
# [18] = tested on: lambsquarters (Chenopodium album, CHEAL); assay: as above; conditions: post-emerge, 14 days after application, rating scale 0-100
# Summary of the method: as §3
# [19] = tested on: large crabgrass (Digitaria sanguinalis, DIGSA); assay: as above; conditions: post-emerge, 14 days after application, rating scale 0-100
# Summary of the method: as §3
# [20] = tested on: redroot pigweed (Amaranthus retroflexus, AMARE); assay: as above; conditions: post-emerge, 14 days after application, rating scale 0-100
# Summary of the method: as §3
# [21] = tested on: sicklepod (Cassia obtusifolia, CASOB); assay: as above; conditions: post-emerge, 14 days after application, rating scale 0-100
# Summary of the method: as §3
# [22] = tested on: velvetleaf (Abutilon theophrasti, ABUTH); assay: as above; conditions: post-emerge, 14 days after application, rating scale 0-100
# Summary of the method: as §3
# [23] = tested on: field corn (Zea mays L., var. Dekalb 535, CORN); assay: Post-emerge test, crop safety; conditions: post-emerge, 14 days after application, rating scale 0-100
# Summary of the method: as §2
# [24] = tested on: upland rice (Oryza sp., var. Tebonnet, RICE); assay: Post-emerge test, crop safety; conditions: post-emerge, 14 days after application, rating scale 0-100
# Summary of the method: as §2
smiles,measurement,setting,value
COc1c(Cl)cc(F)c(-n2c(=O)cc(C(F)(F)F)n(C)c2=O)c1NC(=O)c1ccc(I)cc1 [2-66],"Pre-emerge Herbicidal Activity, phytotoxicity rating (0-100), AMARE",[1]; 63 g ai/ha,100
same,"Pre-emerge Herbicidal Activity, phytotoxicity rating (0-100), AMARE",[1]; 250 g ai/ha,100
same,"Pre-emerge Herbicidal Activity, phytotoxicity rating (0-100), ECHCG",[2]; 63 g ai/ha,0
same,"Pre-emerge Herbicidal Activity, phytotoxicity rating (0-100), ECHCG",[2]; 250 g ai/ha,60
same,"Pre-emerge Herbicidal Activity, phytotoxicity rating (0-100), AMBEL",[3]; 63 g ai/ha,0
same,"Pre-emerge Herbicidal Activity, phytotoxicity rating (0-100), AMBEL",[3]; 250 g ai/ha,60
same,"Pre-emerge Herbicidal Activity, phytotoxicity rating (0-100), SETVI",[4]; 63 g ai/ha,95
same,"Pre-emerge Herbicidal Activity, phytotoxicity rating (0-100), SETVI",[4]; 250 g ai/ha,100
same,"Pre-emerge Herbicidal Activity, phytotoxicity rating (0-100), IPOHE",[5]; 63 g ai/ha,40
same,"Pre-emerge Herbicidal Activity, phytotoxicity rating (0-100), IPOHE",[5]; 250 g ai/ha,80
same,"Pre-emerge Herbicidal Activity, phytotoxicity rating (0-100), SORHA",[6]; 63 g ai/ha,20
same,"Pre-emerge Herbicidal Activity, phytotoxicity rating (0-100), SORHA",[6]; 250 g ai/ha,95
same,"Pre-emerge Herbicidal Activity, phytotoxicity rating (0-100), CHEAL",[7]; 63 g ai/ha,100
same,"Pre-emerge Herbicidal Activity, phytotoxicity rating (0-100), CHEAL",[7]; 250 g ai/ha,100
same,"Pre-emerge Herbicidal Activity, phytotoxicity rating (0-100), DIGSA",[8]; 63 g ai/ha,60
same,"Pre-emerge Herbicidal Activity, phytotoxicity rating (0-100), DIGSA",[8]; 250 g ai/ha,99
same,"Pre-emerge Herbicidal Activity, phytotoxicity rating (0-100), CASOB",[9]; 63 g ai/ha,35
same,"Pre-emerge Herbicidal Activity, phytotoxicity rating (0-100), CASOB",[9]; 250 g ai/ha,90
same,"Pre-emerge Herbicidal Activity, phytotoxicity rating (0-100), ABUTH",[10]; 63 g ai/ha,100
same,"Pre-emerge Herbicidal Activity, phytotoxicity rating (0-100), ABUTH",[10]; 250 g ai/ha,100
same,"Pre-emerge phytotoxicity rating (0-100), crop damage, CORN",[11]; 63 g ai/ha,0
same,"Pre-emerge phytotoxicity rating (0-100), crop damage, CORN",[11]; 250 g ai/ha,15
same,"Pre-emerge phytotoxicity rating (0-100), crop damage, RICE",[12]; 63 g ai/ha,10
same,"Pre-emerge phytotoxicity rating (0-100), crop damage, RICE",[12]; 250 g ai/ha,60
same,phytotoxicity rating ECHCG,[13]; 63 g ai/ha,70
same,phytotoxicity rating ECHCG,[13]; 250 g ai/ha,50
same,phytotoxicity rating AMBEL,[14]; 63 g ai/ha,100
same,phytotoxicity rating AMBEL,[14]; 250 g ai/ha,75
same,phytotoxicity rating SETVI,[15]; 63 g ai/ha,90
same,phytotoxicity rating SETVI,[15]; 250 g ai/ha,80
same,phytotoxicity rating IPOHE,[16]; 63 g ai/ha,100
same,phytotoxicity rating IPOHE,[16]; 250 g ai/ha,90
same,phytotoxicity rating SORHA,[17]; 63 g ai/ha,10
same,phytotoxicity rating SORHA,[17]; 250 g ai/ha,50
same,phytotoxicity rating CHEAL,[18]; 63 g ai/ha,100
same,phytotoxicity rating CHEAL,[18]; 250 g ai/ha,100
same,phytotoxicity rating DIGSA,[19]; 63 g ai/ha,10
same,phytotoxicity rating DIGSA,[19]; 250 g ai/ha,20
same,phytotoxicity rating AMARE,[20]; 63 g ai/ha,100
same,phytotoxicity rating AMARE,[20]; 250 g ai/ha,100
same,phytotoxicity rating CASOB,[21]; 63 g ai/ha,100
same,phytotoxicity rating CASOB,[21]; 250 g ai/ha,70
same,phytotoxicity rating ABUTH,[22]; 63 g ai/ha,100
same,phytotoxicity rating ABUTH,[22]; 250 g ai/ha,100
same,phytotoxicity rating CORN,[23]; 63 g ai/ha,15
same,phytotoxicity rating CORN,[23]; 250 g ai/ha,70
same,phytotoxicity rating RICE,[24]; 63 g ai/ha,50
same,phytotoxicity rating RICE,[24]; 250 g ai/ha,90
